Where a SMILES comes first, the peptide text is derived from it. [ ]: non-standard residue; d: D form.
Tested on: 3-day-old oral plaque biofilms
Assay: Plaque biofilms treated with oral rinse solutions for 14 days
Assay type: cell-based
Settings: 0.12% CHX+10 μg/mL peptide, twice daily
Description: Briefly, after the formation of a 3-day-old biofilm, HA disks were rinsed in PBS for 1 minute and assigned to one of five treatment groups: (i) sterile water, (ii) Listerine Total Care Mouthwash (Johnson & Johnson Inc., Canada), (iii) GUM Paroex Mouthwash (Sunstar, USA), (iv) 0.12% CHX+10 μg/mL of peptide DJK-5, and (v) 0.12% CHX+10 μg/mL of peptide AB103-D. For each treatment, the disks were treated twice each day (i.e. at 8 am and […] for the first and second time, respectively). Treatment consisted of a droplet of 40 μl of each solution spread on the surface of the biofilm for 1 minute, followed by rinsing with PBS for 1 minute and then placing the disk back into the 24-well plates under anaerobic conditions at 37 °C. On the 0, 1st, 3rd, 7th, 10th, and 14th day, three disks from each group were collected for confocal microscopy analysis. Biofilms were stained with fluorescent dyes SYTO-9 and propidium iodide, which stain live cells green and dead cells red, respectively. The scale bar represents 200 μm. […]. […] The results indicated improved antibiofilm effects of AB103-D on 3-day-old oral plaque biofilms compared to treatment by various oral rinse solutions for 14 days.

**Q.** How did the “Proportion of dead bacteria within the biofilm” value turn out when `CC[C@@H](C)[C@@H](NC(=O)[C@@H](C)NC(=O)[C@@H](CCCNC(=N)N)NC(=O)[C@@H](Cc1c[nH]c2ccccc12)NC(=O)[C@@H](CCC(N)=O)NC(=O)[C@H](NC(=O)[C@@H](CCCNC(=N)N)NC(=O)[C@H](NC(=O)[C@H](NC(=O)[C@@H](CCCNC(=N)N)NC(=O)[C@H](NC(=O)[C@H](N)CCCNC(=N)N)C(C)C)C(C)C)[C@H](C)CC)C(C)C)C(N)=O` [AB103-D, rvrvirvqwrai-NH2] (H-[dR][dV][dR][dV][dI][dR][dV][dQ][dW][dR][dA][dI]-NH2) was run?
**A.** more effective than DJK5

**Q.** What about the Residual plaque biovolume of the same compound?
**A.** superior than DJK5

From patent US20260374818A1, “CATIONIC PEPTIDES WITH BROAD SPECTRUM ACTIVITY” (priority 2023, published 2026)
